Assay results as given in PMC10850145, “Hormonal steroids induce multidrug resistance and stress response genes in Neisseria gonorrhoeae by binding to MtrR” (Nature Communications, 2024).
“And” between values parts separate entries of the source, which are not always exact repeats. Equal values may be shown once. Read-outs that look alike come from different tables or passages of the source.

Tested on: mtrC-lacZ expression
Type: cell-based, Neisseria gonorrhoeae
Conditions: for Miller units: single well; for mtrC-lacZ β-galactosidase activity, Mean: left block of sheet (mtrCDE)
[1] = second block of sheet (c39-c76), ΔmtrR + mtrR R176E in trans, 6.25 µM
[2] = second block of sheet (c39-c76), ΔmtrR + mtrR R176E in trans, 12.5 µM
[3] = second block of sheet (c39-c76), ΔmtrR + mtrR R176E in trans, 25 µM
[4] = second block of sheet (c39-c76), ΔmtrR + mtrR R176E in trans, 50 µM

In the case of `C[C@]12CC[C@@H]3c4ccc(O)cc4CC[C@H]3[C@@H]1CC[C@@H]2O` [β-Estradiol, β-estradiol], the “β-galactosidase activity, individual replicate” value (mtrR WT in cis, 50 µM hormone, single replicate values, second (right) block) was 113 Miller units and 109 Miller units, the “β-galactosidase activity, Miller units (single replicate)” value (from here on “β-galactosidase activity, Miller units”) (mtrR WT in cis, 50 µM, first data set (c15-c36)) was 196 Miller units and 185 Miller units and 161 Miller units and the “β-galactosidase activity, Miller units” value (mtrR WT in cis, 50 µM, second data set (c53-c74)) was 92 Miller units and 82 Miller units. For the same molecule, the “β-galactosidase activity, Mean” value [1] was 80 Miller units, the “β-galactosidase activity, single replicate” value [1] was 96 Miller units and 78 Miller units and 89 Miller units and 60 Miller units and the “β-galactosidase activity, Mean” value [2] was 81 Miller units. The “β-galactosidase activity, single replicate” value [2] was 106 Miller units and 86 Miller units and 70 Miller units and 62 Miller units, the “β-galactosidase activity, Mean” value [3] was 94 Miller units and the “β-galactosidase activity, single replicate” value [3] was 126 Miller units and 96 Miller units and 86 Miller units and 68 Miller units. For the same molecule, the “β-galactosidase activity, Mean” value [4] was 89 Miller units, the “β-galactosidase activity, single replicate” value [4] was 107 Miller units and 93 Miller units and 84 Miller units and 73 Miller units and the Miller units (plate rows 1-4, plate columns 1-6 (first strain), 6.25 µM hormone) was 104 Miller units and 79 Miller units and 90 Miller units and 61 Miller units. For the same molecule, the Miller units (plate rows 1-4, plate columns 1-6 (first strain), 12.5 µM hormone) was 145 Miller units and 115 Miller units and 112 Miller units and 81 Miller units, the Miller units (plate rows 1-4, plate columns 1-6 (first strain), 25 µM hormone) was 166 Miller units and 152 Miller units and 162 Miller units and 114 Miller units and the Miller units (plate rows 1-4, plate columns 1-6 (first strain), 50 µM hormone) was 161 Miller units and 192 Miller units and 168 Miller units and 126 Miller units. For the same molecule, the Miller units (plate rows 1-4, plate columns 7-12 (second strain), 12.5 µM hormone) was 165 Miller units and 161 Miller units and 99 Miller units, the Miller units (plate rows 1-4, plate columns 7-12 (second strain), 25 µM hormone) was 232 Miller units and 177 Miller units and 156 Miller units and 133 Miller units and the Miller units (plate rows 1-4, plate columns 7-12 (second strain), 50 µM hormone) was 195 Miller units and 178 Miller units and 151 Miller units and 114 Miller units. For the same molecule, the “β-galactosidase activity, mtrC-lacZ, Mean” value (strain WT (FA19/pLES94-mtrC), hormone 6.25 µM) was 131 Miller units, the “β-galactosidase activity, mtrC-lacZ, Mean” value (strain WT (FA19/pLES94-mtrC), hormone 12.5 µM) was 148 Miller units and the “β-galactosidase activity, mtrC-lacZ, Mean” value (strain WT (FA19/pLES94-mtrC), hormone 25 µM) was 177 Miller units. The “β-galactosidase activity, mtrC-lacZ, Mean” value (strain WT (FA19/pLES94-mtrC), hormone 50 µM) was 224 Miller units, the “mtrC-lacZ β-galactosidase activity, Mean” value (strain WT, 6.25 µM hormone) was 137 Miller units and the “β-galactosidase activity, Mean” value (strain WT, 6.25 µM hormone, second (right) untitled block of sheet Figure S10 (mtrC)) was 44 Miller units. The “mtrC-lacZ β-galactosidase activity, Mean” value (strain WT, 12.5 µM hormone) was 155 Miller units, the “β-galactosidase activity, Mean” value (strain WT, 12.5 µM hormone, second (right) untitled block of sheet Figure S10 (mtrC)) was 54 Miller units and the “mtrC-lacZ β-galactosidase activity, Mean” value (strain WT, 25 µM hormone) was 162 Miller units. The “β-galactosidase activity, Mean” value (strain WT, 25 µM hormone, second (right) untitled block of sheet Figure S10 (mtrC)) was 60 Miller units, the “mtrC-lacZ β-galactosidase activity, Mean” value (strain WT, 50 µM hormone) was 182 Miller units and the “β-galactosidase activity, Mean” value (strain WT, 50 µM hormone, second (right) untitled block of sheet Figure S10 (mtrC)) was 99 Miller units. The “activation of mtrC” value (strain producing MtrR R176E) was “clearly weaker activation”, the “β-galactosidase activity, mtrC-lacZ, Mean” value (strain ΔmtrR (FA19 ∆mtrR/pLES94-mtrC), hormone 6.25 µM) was 210 Miller units and the “β-galactosidase activity, mtrC-lacZ, Mean” value (strain ΔmtrR (FA19 ∆mtrR/pLES94-mtrC), hormone 12.5 µM) was 218 Miller units. For the same molecule, the “β-galactosidase activity, mtrC-lacZ, Mean” value (strain ΔmtrR (FA19 ∆mtrR/pLES94-mtrC), hormone 25 µM) was 243 Miller units, the “β-galactosidase activity, mtrC-lacZ, Mean” value (strain ΔmtrR (FA19 ∆mtrR/pLES94-mtrC), hormone 50 µM) was 255 Miller units and the “β-galactosidase activity, mtrC-lacZ, Mean” value (strain ΔmtrR + mtrR D171A (pGCC3-mtrR D171A), hormone 6.25 µM) was 149 Miller units. The “β-galactosidase activity, mtrC-lacZ, Mean” value (strain ΔmtrR + mtrR D171A (pGCC3-mtrR D171A), hormone 12.5 µM) was 157 Miller units, the “β-galactosidase activity, mtrC-lacZ, Mean” value (strain ΔmtrR + mtrR D171A (pGCC3-mtrR D171A), hormone 25 µM) was 167 Miller units and the “β-galactosidase activity, mtrC-lacZ, Mean” value (strain ΔmtrR + mtrR D171A (pGCC3-mtrR D171A), hormone 50 µM) was 163 Miller units. The “mtrC-lacZ β-galactosidase activity, Mean” value (strain ΔmtrR + mtrR R176E, 6.25 µM hormone) was 194 Miller units, the “β-galactosidase activity, Mean” value (strain ΔmtrR + mtrR R176E, 6.25 µM hormone, second (right) untitled block of sheet Figure S10 (mtrC)) was 80 Miller units and the “mtrC-lacZ β-galactosidase activity, Mean” value (strain ΔmtrR + mtrR R176E, 12.5 µM hormone) was 205 Miller units. For the same molecule, the “β-galactosidase activity, Mean” value (strain ΔmtrR + mtrR R176E, 12.5 µM hormone, second (right) untitled block of sheet Figure S10 (mtrC)) was 81 Miller units, the “mtrC-lacZ β-galactosidase activity, Mean” value (strain ΔmtrR + mtrR R176E, 25 µM hormone) was 197 Miller units and the “β-galactosidase activity, Mean” value (strain ΔmtrR + mtrR R176E, 25 µM hormone, second (right) untitled block of sheet Figure S10 (mtrC)) was 94 Miller units. For the same molecule, the “mtrC-lacZ β-galactosidase activity, Mean” value (strain ΔmtrR + mtrR R176E, 50 µM hormone) was 269 Miller units, the “β-galactosidase activity, Mean” value (strain ΔmtrR + mtrR R176E, 50 µM hormone, second (right) untitled block of sheet Figure S10 (mtrC)) was 89 Miller units and the “β-galactosidase activity, mtrC-lacZ, Mean” value (strain ΔmtrR + mtrR WT (pGCC3-mtrR), hormone 6.25 µM) was 116 Miller units. The “β-galactosidase activity, mtrC-lacZ, Mean” value (strain ΔmtrR + mtrR WT (pGCC3-mtrR), hormone 12.5 µM) was 113 Miller units, the “β-galactosidase activity, mtrC-lacZ, Mean” value (strain ΔmtrR + mtrR WT (pGCC3-mtrR), hormone 25 µM) was 138 Miller units and the “β-galactosidase activity, mtrC-lacZ, Mean” value (strain ΔmtrR + mtrR WT (pGCC3-mtrR), hormone 50 µM) was 158 Miller units. The “mtrC-lacZ β-galactosidase activity, Mean” value (strain ΔmtrR + mtrR WT, 6.25 µM hormone) was 106 Miller units, the “β-galactosidase activity, Mean” value (strain ΔmtrR + mtrR WT, 6.25 µM hormone, second (right) untitled block of sheet Figure S10 (mtrC)) was 17 Miller units and the “mtrC-lacZ β-galactosidase activity, Mean” value (strain ΔmtrR + mtrR WT, 12.5 µM hormone) was 117 Miller units. The “β-galactosidase activity, Mean” value (strain ΔmtrR + mtrR WT, 12.5 µM hormone, second (right) untitled block of sheet Figure S10 (mtrC)) was 27 Miller units, the “mtrC-lacZ β-galactosidase activity, Mean” value (strain ΔmtrR + mtrR WT, 25 µM hormone) was 136 Miller units and the “β-galactosidase activity, Mean” value (strain ΔmtrR + mtrR WT, 25 µM hormone, second (right) untitled block of sheet Figure S10 (mtrC)) was 36 Miller units. For the same molecule, the “mtrC-lacZ β-galactosidase activity, Mean” value (strain ΔmtrR + mtrR WT, 50 µM hormone) was 154 Miller units, the “β-galactosidase activity, Mean” value (strain ΔmtrR + mtrR WT, 50 µM hormone, second (right) untitled block of sheet Figure S10 (mtrC)) was 45 Miller units and the “mtrC-lacZ β-galactosidase activity, Mean” value (strain ΔmtrR, 6.25 µM hormone) was 273 Miller units. The “β-galactosidase activity, Mean” value (strain ΔmtrR, 6.25 µM hormone, second (right) untitled block of sheet Figure S10 (mtrC)) was 94 Miller units, the “mtrC-lacZ β-galactosidase activity, Mean” value (strain ΔmtrR, 12.5 µM hormone) was 263 Miller units and the “β-galactosidase activity, Mean” value (strain ΔmtrR, 12.5 µM hormone, second (right) untitled block of sheet Figure S10 (mtrC)) was 89 Miller units. The “mtrC-lacZ β-galactosidase activity, Mean” value (strain ΔmtrR, 25 µM hormone) was 239 Miller units, the “β-galactosidase activity, Mean” value (strain ΔmtrR, 25 µM hormone, second (right) untitled block of sheet Figure S10 (mtrC)) was 98 Miller units and the “mtrC-lacZ β-galactosidase activity, Mean” value (strain ΔmtrR, 50 µM hormone) was 257 Miller units. The “β-galactosidase activity, Mean” value (strain ΔmtrR, 50 µM hormone, second (right) untitled block of sheet Figure S10 (mtrC)) was 101 Miller units, the “β-galactosidase activity, Miller units” value (ΔmtrR + mtrR WT in trans, 6.25 µM, first data set (c15-c36)) was 87 Miller units and 127 Miller units and the “β-galactosidase activity, Miller units” value (ΔmtrR + mtrR WT in trans, 6.25 µM, second data set (c53-c74)) was 22 Miller units and 9 Miller units and 12 Miller units and 27 Miller units. For the same molecule, the “β-galactosidase activity, Miller units” value (ΔmtrR + mtrR WT in trans, 12.5 µM, first data set (c15-c36)) was 84 Miller units and 130 Miller units, the “β-galactosidase activity, Miller units” value (ΔmtrR + mtrR WT in trans, 12.5 µM, second data set (c53-c74)) was 33 Miller units and 23 Miller units and 27 Miller units and the “β-galactosidase activity, Miller units” value (ΔmtrR + mtrR WT in trans, 25 µM, first data set (c15-c36)) was 124 Miller units and 127 Miller units. The “β-galactosidase activity, Miller units” value (ΔmtrR + mtrR WT in trans, 25 µM, second data set (c53-c74)) was 45 Miller units and 34 Miller units and 39 Miller units and 27 Miller units, the “β-galactosidase activity, Miller units” value (ΔmtrR + mtrR WT in trans, 50 µM, first data set (c15-c36)) was 156 Miller units and 168 Miller units and the “β-galactosidase activity, Miller units” value (ΔmtrR + mtrR WT in trans, 50 µM, second data set (c53-c74)) was 51 Miller units and 40 Miller units and 39 Miller units and 48 Miller units. For the same molecule, the “β-galactosidase activity, Miller units” value (ΔmtrR, 6.25 µM, first data set (c15-c36)) was 214 Miller units and 261 Miller units and 306 Miller units and 310 Miller units, the “β-galactosidase activity, Miller units” value (ΔmtrR, 6.25 µM, second data set (c53-c74)) was 115 Miller units and 96 Miller units and 95 Miller units and 69 Miller units and the “β-galactosidase activity, Miller units” value (ΔmtrR, 12.5 µM, first data set (c15-c36)) was 280 Miller units and 263 Miller units and 247 Miller units and 264 Miller units. The “β-galactosidase activity, Miller units” value (ΔmtrR, 12.5 µM, second data set (c53-c74)) was 97 Miller units and 87 Miller units and 92 Miller units and 78 Miller units, the “β-galactosidase activity, Miller units” value (ΔmtrR, 25 µM, first data set (c15-c36)) was 208 Miller units and 262 Miller units and 216 Miller units and 271 Miller units and the “β-galactosidase activity, Miller units” value (ΔmtrR, 25 µM, second data set (c53-c74)) was 139 Miller units and 80 Miller units and 83 Miller units and 89 Miller units. The “β-galactosidase activity, Miller units” value (ΔmtrR, 50 µM, first data set (c15-c36)) was 240 Miller units and 239 Miller units and 224 Miller units and 327 Miller units and the “β-galactosidase activity, Miller units” value (ΔmtrR, 50 µM, second data set (c53-c74)) was 128 Miller units and 93 Miller units and 88 Miller units and 96 Miller units.
